Assay results published in patent US7326730B2, “Aminoadamantane derivatives as therapeutic agents” (Adamas Pharmaceuticals, Inc., priority 2000, dated 2008).
“Also recorded” adds a separate entry of the source.

Columns and labels:
[1] = tested on: precontracted aortic vessel; assay: Relaxation of norepinephrine-precontracted, endothelium-denuded thoracic aorta rings; parameters: species or system rabbits; details: for effect on precontracted blood vessel: compared to solvent (EtOH) alone
Experimental: New Zealand white female rabbits weighing 3-4 kilograms were anesthetized with sodium pentobarbital, 13 milligram per kilogram. Descending thoracic aorta were isolated, the vessels were cleaned of adherent tissue and the endothelium was removed by a gentle rubbing with a cotton-tipped applicator inserted into the lumen. The vessels were cut into 5 millimeter rings and mounted on stirrups connected to transducers by which changes in isometric tension were recorded (model TO3C, Grass Instruments, Quincy, Mass.). Vessel rings were suspended in 20 mL of oxygenated Krebs buffer at 37° C. and sustained contractions were induced with 1 μM norepinephrine. The vessels were then relaxed in a dose-dependent fashion (10^−9 through 10^−5 M compound 8). In some experiments vessels were pretreated with methylene blue or hemoglobin to block relaxations.
Relaxations were attenuated by methylene blue (c) and hemoglobin (d) indicating an NO-related effect. (b) is a control with solvent.

cerebrocortical neurons = assay: In vitro model of mild NMDA-induced damage leading to apoptosis of cerebrocortical neurons; type: cell-based
Experimental: Cerebrocortical cultures were exposed to 300 μM NMDA for 20 min with or without various concentrations of compound 7. The next day cultures were analyzed by neuronal apoptosis as described in Example 19.
Under these conditions (300 μM NMDA exposure for 20 min, followed by washout), neuronal apoptosis was monitored 24 hours later by propidium iodide uptake and morphology of fixed, permeabilized neurons, among other techniques (Bonfoco et al., Proc Natl Acad Sci USA (1995) 92: 7162). NMDA induced about 20% apoptosis of neurons, and that 25-100 μM compound 7 afforded protection from this damage (P<0.001, FIG. 5).

C57B1/6 mice = assay: Murine cerebral ischemia model (intraluminal suture, 2 hr MCA occlusion, TTC staining); type: in vivo; details: loading dose 100 mg/kg i.p., maintenance 40 mg/kg i.p. every 12 hr, first dose 2 hr after MCA occlusion; TTC staining at 48 hr; P<0.03 from control, P<0.05 from memantine; hydrochloride
Experimental: The intraluminal suture technique was used to produce a 2 hr occlusion of the middle cerebral artery (MCA), following the same protocol for focal cerebral ischemia/reperfusion as published previously (Chen, et al., Neuroscience (1998) 86: 1121). However, here C57B1/6 mice were used instead of rats. […] To produce a neuroprotective concentration of compound 7, the loading dose was 100 mg/kg i.p. and the maintenance dose was 40 mg/kg i.p. every 12 hr. In each case, drug or vehicle control was initially administered 2 hr after MCA occlusion. […] The animals were sacrificed and analyzed with TTC staining 48 hr after MCA occlusion (Chen, et al., Neuroscience (1998) 86: 1121).

[2] = loading dose 20 mg/kg i.p., maintenance dose 1 mg/kg/12 hours; previously shown (Chen et al. 1998); cited from earlier work
[3] = rabbit aortic rings precontracted with 1 μM norepinephrine, 10^−9 through 10^−5 M tested

## CC12CC3(C)CC(N)(C1)CC(O[N+](=O)[O-])(C2)C3.Cl [compound 7, 1-amino-3,5-dimethyl-7-nitrateadamantane hydrochloride]
[1]; FIG. 8, 10 microM concentration
  effect on precontracted blood vessel at 10 microM: modest relaxation
Cerebrocortical neurons; 300 μM NMDA for 20 min, washout, apoptosis monitored 24 hours later by propidium iodide uptake and morphology, NMDA induced about 20% apoptosis, P<0.001
  concentration affording protection from NMDA-induced neuronal apoptosis: 25 to 100 µM
Cerebrocortical neurons; 300 μM NMDA for 20 min with various concentrations of compound, dose-dependent, P<0.001, n=3 cultures
  inhibition of NMDA induced apoptosis in cerebrocortical neurons: largely prevented
C57B1/6 mice
  cerebral damage after stroke (neuroprotection): more neuroprotective than memantine; also recorded: effective in decreasing cerebral damage after stroke

## CC12CC3(C)CC(N)(C1)CC(O)(C2)C3.Cl [compound 9, 1-amino-3,5-dimethyl-7-hydroxyadamantane hydrochloride]
[1]; FIG. 8, hydrochloride
  effect on precontracted blood vessel: either no effect or slight contractions of blood vessels; also recorded: either no effect or slight blood vessel contractions

## CC12CC3CC(C)(C1)CC(N)(C3)C2 [memantine]
[2]
  parenchymal levels in the brain: 1 to 10 µM

## CC(=O)NC12CC3(C)CC(C)(C1)CC(O[N+](=O)[O-])(C3)C2 [compound 8, 1-acetamido-3,5-dimethyl-7-nitrateadamantane]
[1]; [3]
  concentration at which complete relaxation was achieved: 10^−6 M
  concentration at which relaxations were seen: 10^−8 M
[1]; vessels pretreated with hemoglobin
  relaxations after pretreatment with hemoglobin: attenuated
[1]; vessels pretreated with methylene blue
  relaxations after pretreatment with methylene blue: attenuated

## CC12CC3(C)CC(O)(C1)CC(N(Cc1ccccc1)Cc1ccccc1)(C2)C3 [compound 10, 1,1-dibenzylamino-3,5-dimethyl-7-hydroxy-adamantane]
[1]; FIG. 8
  effect on precontracted blood vessel: either no effect or slight contractions of blood vessels; also recorded: either no effect or slight blood vessel contractions
